These results are taken from US20230227484A1, “PYRIMIDINE COMPOUND AS AXL INHIBITOR” (NANJING CHIA TAI TIANQING PHARMACEUTICAL CO., LTD., priority 2020, published 2023).

The Cmax is the peak of the concentration-time curve. The term Tmax denotes the time from dosing to the highest level. Broadly, the half-life is the time needed for the level to fall by half in the phase considered. As a reminder, the IC50 is the concentration that gives 50% inhibition. A low value points to greater potency.

Data set [1] is described as follows: Pharmacokinetic study of compounds on ICR mice. The data set is classed as in vivo. To be noted: mouse, po, male ICR mice, plasma; for Cmax / Tmax / half-life: 10 mg-kg^1 by gavage; for AUC(0-t): 10 mg/kg-kg^1 by gavage, read-out: AUC0-24. The procedure: Each compound is prepared with DMSO into a 10 mg/mL stock solution.
Preparation of mixed solvent: Tween 80: PEG400: Water=1:9:90 (v/v/v)
450 μl of the compound DMSO stock solution with a concentration of 10 mg/nmL is accurately sucked into a glass bottle, and added with an appropriate volume of DMSO and mixed solvent, wherein a ratio of the solvent in the final formulation is DMSO: mixed solvent (v/v)=10:90. The mixed solution is vortexed (or ultrasonically treated), and dispersed uniformly to obtain 4.5 mL. administration test solutions with a concentration of 1 mg/nL, respectively.
Male 6-10 week old ICR mice (sourced from: Beijing Vital River Laboratory Animal Technology Co., Ltd.) are taken, 6 mice in each group. The mice are fasted overnight and fed 4 h after the administration. On the day of the experiment, the mice are administrated with 10 mg-kg^1 of compound test solution by gavage. After administration, about 100 μL of blood is harvested from the orbits of the mice at 0 min, 5 mmn, 15 mmn, 30 min, 14 h 2 h, 4 h, 8 h, and 24 h, and placed in EDTA-K2 anticoagulant tubes. The whole blood sample is centrifuged at 1500 to 1600 g for 10 mm, and the plasma obtained by separation is stored in a refrigerator at −40 to −20° C. for biological sample analysis. The blood drug concentration is determined by an LC-MS/MS method.
A non-compartmental model in Pharsight Phoenix 7.0 is used to calculate pharmacokinetic parameters. The specific results are shown in 5 the table below.

Data set [2] concerns MV-4-11 (human myeloid monocytic leukemia cell line). Briefly: Proliferation inhibition activity of compounds to MV-4-11 cells (CellTiter-Glo). The settings on record: MV4-11 cells, 72 h dosing. In kind it is cell-based. The procedure: MV-4-11 (human myeloid monocytic leukemia cell line, culture medium: JIMDM+10% fetal bovine serum) is purchased from Cobioer Biosciences Co., Ltd and cultured in a 5% C02 incubator at 37° C. The cells in a logarithmic growth phase are plated in a 96-well plate at cell densities of 8000 cells/well, 6000 cells/well, 2000 cells/well, 2000 cells/well and 3000 cells/well, and a blank control group is set at the same time.
A compound to be tested and the positive drug are dissolved in dimethyl sulfoxide to prepare a 10 mM stock solution, which is then stored in −80° C. refrigerator for long-time storage. After the cells are plated for 24 h, the 10 mM compound stock solution is diluted with dimethyl sulfoxide to obtain a working solution having a 200-fold concentration (the highest concentration is 200 or 2000 μM, a 3-fold gradient, a total of 10 concentrations), and 3 μL of the working solution of each concentration is added to 197 μL of complete medium, and diluted into a working solution of 3-fold concentration. 50 μL of the working solution is then taken and added to a 100 μL cell culture medium (a final concentration of dimethyl sulfoxide is 0.5%, v/v), and two complex holes are set for each concentration. After 72 h of dosing treatment, 50 μl of CellTiter-Glo® (purchased from Promega) is added to each well. Fluorescence signals are measured on Envision (PerkinElmer) according to an operating procedure of the specification. GraphPad Prism 5 software log(inhibitor) vs. response-Variable slope is used to fit a dose-response curve, so as to obtain the IC50 value of the compound to the inhibition of cell-proliferation. The calculation formulation of the inhibition rate is as follows: […]
wherein: signal value of subject: a mean fluorescence signal of cell+medium+compound group; signal value of blank group: a mean fluorescence signal of medium group (containing 0.5% DMSO); signal value of negative control group: a mean fluorescence signal of cell+medium group (containing 0.5% DMSO).

Data set [3] addresses T1, AXL kinase (Homo sapiens, UniProt P30530).
T1 construct: purchased Carna 08-107
T1 sequence (P30530 473-894 limits assumed): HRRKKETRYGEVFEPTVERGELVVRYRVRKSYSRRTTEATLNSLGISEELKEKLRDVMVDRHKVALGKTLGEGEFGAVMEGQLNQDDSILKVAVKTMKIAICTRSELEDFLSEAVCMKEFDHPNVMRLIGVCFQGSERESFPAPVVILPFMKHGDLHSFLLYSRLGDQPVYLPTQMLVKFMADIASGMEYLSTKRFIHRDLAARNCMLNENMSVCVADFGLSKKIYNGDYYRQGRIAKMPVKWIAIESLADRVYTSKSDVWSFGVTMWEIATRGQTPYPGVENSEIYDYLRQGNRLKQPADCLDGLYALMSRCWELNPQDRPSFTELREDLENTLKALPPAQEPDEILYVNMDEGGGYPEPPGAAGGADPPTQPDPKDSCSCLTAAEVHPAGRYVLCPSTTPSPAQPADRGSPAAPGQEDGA
As to the kind of experiment: Inhibitory activity of compound against AXL kinase (HTRF KinEASE). To be noted: AXL enzyme (Carna, 08-107), ATP 15 μM; "<" means below detection limit of the test. In kind it is biochemical. Summed up:
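AXL enzyme (final 0.016 ng/uL) was preincubated with compound (8 concentrations from 1 μM, ½ log steps) for 15 min at room temperature, then reacted with TK Substrate 3-biotin (final 1) and ATP (final 15 μM) for 45 min at 25° C. Phosphorylation was read by HTRF (TK antibody-cryptate, streptavidin-XL665, 1 h); IC50 from variable-slope dose-response fit.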
For orientation: In TR-FRET formats the signal depends on donor and acceptor labels being close together.

Data set [4] has as its system human acute monocytic leukemia cell MV-4-11 xenograft tumor. As to the kind of experiment: In-vivo efficacy of compound for MV4-11 xenograft tumor model of nude mouse. To be noted: MV4-11, po, intragastric 5 mg/kg/d, once a day, end of experiment, MV-4-11 xenograft nude mice; for response vs control in vivo at 5 mg/kg/day: read-out: Relative tumor proliferation rate (% T/C); for inhibition in vivo at 5 mg/kg/day: read-out: Tumor growth inhibition rate (TGI %). As to the method: Inhibitory effects of a compound and a positive drug on the in-vivo tumor growth of a xenograft tumor model of a nude mouse on human acute monocytic leukemia cell MV-4-11 are tested.
MV-4-11 cells in a logarithmic growth phase are harvested, resuspended after cell counting, and adjusted in cell concentration to 7.0×10^7 cells/mL. The resuspended solution is injected into the right armpit of the nude mice subcutaneously. Each animal is inoculated with 200 μL (14×10^6 cells) of the suspended solution to establish a MV-4-11 xenograft tumor model. Afer the tumor volume reaches 100-300 mm^3, tumor-bearing mice in good health and similar tumor volume are selected.
The compound and the positive drug are vortexed with a suitable solvent and then ultrasonicated to completely dissolve the compound. Then, an appropriate volume of citric acid buffer is slowly added, and the mixed solution is vortexed to make the solution mixed uniformly to obtain administrative formulations having concentrations of 0.1, 0.5, and 1 mg-mL^−1.
Solvent control group: PEG400 & citric acid buffer (20:80, v:v).
The modeled mice are randomly divided into groups (n=6), and administrated with the relevant compounds and positive drugs on the day of grouping. After 21 days or after the tumor volume of the solvent control group reaches 2000 mm^3, the experiment is terminated (whichever reaches the index first), and the administration volume is 10 mL-kg^−1. Both the compound and the positive drug are administered by gavage, once a day. After the experiment starts, the tumor diameter and animal body weight are measured twice a week, and the tumor volume is calculated.
The tumor volume(TV) calculation formula is: tumor volume(mm^3)=l×w^2/2,
The calculation formula of relative tumor volume(RTV) is: RTV=TVt/TVinitial
The calculation formula of relative tumor proliferation rate (% T/C) is: % T/C=100%×(RTVT/RTVC)

For data set [5] the test system is unchanged. The description is as above. The settings on record: MV4-11, po.

On to `CP(C)(=O)c1cc(Cl)ccc1Nc1nc(Nc2ccc3c(c2)CC[C@@H](N2CCCC2)CC3)ncc1Cl` [Example 52], for which, in data set [1], the peak level (Cmax) was 0.429 µg/mL, the Tmax came to 0.5 h, the half-life is 2.42 h and the AUC(0-t) was found to be 1.15 µg·h/mL. The same compound gave an IC50 in data set [2] of 5.32 nM. For the same compound, the IC50 in data set [3] worked out at 1.06 nM.

In the case of `CN1CCN(Cc2ccc(Nc3ncc(Cl)c(Nc4ccccc4S(=O)(=O)N(C)C)n3)cc2)CC1` [Positive drug 2 (TP0903), TP0903, reference compound], in data set [1], the Cmax worked out at 0.0268 µg/mL, the time of peak concentration (Tmax) worked out at 0.25 h and the AUC(0-t) stood at 0.0522 µg·h/mL. In data set [4], the response vs control in vivo at 5 mg/kg/day came to 42% and the inhibition in vivo at 5 mg/kg/day is 62%. This compound also yielded an IC50 in data set [2] of 12 nM.

With `Nc1nc(Nc2ccc3c(c2)CC[C@@H](N2CCCC2)CC3)nn1-c1cc2c(nn1)-c1ccccc1CCC2` [Positive drug 1 (BGB324), BGB324], the inhibition in vivo at 20 mg/kg/day in data set [5] (intragastric 20 mg/kg/d, once a day, end of experiment, MV-4-11 xenograft nude mice, read-out: Tumor growth inhibition rate (TGI %)) was 32%. Also, the response vs control in vivo at 20 mg/kg/day in data set [5] (read-out: Relative tumor proliferation rate (% T/C)) came to 71%. Besides, half-maximal inhibition in data set [2] (IC50) was put at 208 nM.

For `CP(C)(=O)c1cc(F)ccc1Nc1nc(Nc2ccc3c(c2)CC[C@@H](N2CCCC2)CC3)ncc1Cl` [Example 51, (S)-(2-((5-chloro-2-((7-(pyrrolidin-1-yl)-6,7,8,9-tetrahydro-5H-benzo[7]annulen-2-yl)amino)pyrimidin-4-yl)amino)-5-fluorophenyl)dimethyl phosphine oxide], in data set [1], the maximum concentration (Cmax) came out at 0.419 µg/mL, the Tmax turned out to be 0.5 h, the half-life was 2.17 h and the AUC(0-t) is 1.07 µg·h/mL. Also, the IC50 in data set [2] worked out at 4.53 nM. The same compound displayed an IC50 in data set [3] of 2.6 nM.

Turning to `CN1Cc2cccc(Nc3nc(Nc4ccc5c(c4)CC[C@@H](N4CCCC4)CC5)ncc3Cl)c2C1=O` [Example 28, (S)-7-((5-chloro-2-(((7-(pyrrolidin-1-yl)-6,7,8,9-tetrahydro-5H-benzo[7]annulen-2-yl)amino))pyrimidin-4-yl)amino)-2-methylisoindolin-1-one], in data set [1], the peak level (Cmax) was 0.226 µg/mL, the time of peak concentration (Tmax) was 8 h and the AUC(0-t) stood at 3 µg·h/mL. Further, in data set [4], the response vs control in vivo at 5 mg/kg/day turned out to be 5.9% and the inhibition in vivo at 5 mg/kg/day amounted to 104%. Further, inhibition in data set [3] was half-maximal at 0.31 nM (IC50).

Regarding `Clc1cnc(Nc2ccc3c(c2)CC[C@@H](N2CCCC2)CC3)nc1Nc1ccccc1-c1ncc[nH]1` [Example 18, (S)—N^4-(2-(1H-imidazol-2-yl)phenyl)-5-chloro-N^2-(7-(pyrrolidin-1-yl)-6,7,8,9-tetrahydro-5H-benzo[7]annulen-2-yl)pyrimidine-2,4-diamine], in data set [1], the Cmax came out at 0.249 µg/mL, the time of peak concentration (Tmax) was 2 h, the half-life was 3.03 h and the AUC(0-t) turned out to be 2.3 µg·h/mL. Besides, in data set [4], the response vs control in vivo at 5 mg/kg/day was determined as 37% and the inhibition in vivo at 5 mg/kg/day worked out at 71%. This compound also had an IC50 in data set [3] of 0.19 nM.

For `CS(=O)(=O)c1ccccc1Nc1nc(Nc2ccc3c(c2)CC[C@@H](N2CCCC2)CC3)ncc1Cl` [Example 23, (S)-5-chloro-N^4-(2-(methylsulfonyl)phenyl)-N^2-(7-(pyrrolidin-1-yl)-6,7,8,9-tetrahydro-5H-benzo[7]annulen-2-yl)pyrimidine-2,4-diamine], the figures for the 50% inhibitory concentration (IC50) in data set [2] and in data set [3] were 7.11 nM and 1.38 nM, respectively.

On to `CC(C)(O)c1ccccc1Nc1nc(Nc2ccc3c(c2)CC[C@@H](N2CCCC2)CC3)ncc1Cl` [Example 15, (S)-2-(2-((5-chloro-2-((7-(pyrrolidin-1-yl)-6,7,8,9-tetrahydro-5H-benzo[7]annulen-2-yl)amino)pyrimidin-4-yl)amino)phenyl)propan-2-ol], for which the results for the half-maximal inhibitory concentration (IC50) in data set [2] and in data set [3] were 9.15 nM and 2.41 nM, respectively.

Consider `NC(=O)c1cc(F)ccc1Nc1nc(Nc2ccc3c(c2)CC[C@@H](N2CCCC2)CC3)ncc1Cl` [Example 16, (S)-2-((5-chloro-2-((7-(pyrrolidin-1-yl)-6,7,8,9-tetrahydro-5H-benzo[7]annulen-2-yl)amino)pyrimidin-4-yl)amino)-5-fluorobenzamide], for which the 50% inhibitory concentration (IC50) was 0.97 nM in data set [2] and 0.12 nM in data set [3].
